{"source": "ChEMBL document CHEMBL1149146", "about": "“Synthesis and biological evaluation of new 1,2-dihydro-4-hydroxy-2-oxo-3-quinolinecarboxamides for treatment of autoimmune disorders: structure-activity relationship” (2004)", "key": {"[1]": {"tested_on": "Mus musculus", "experiment": "Inhibition of acute experimental autoimmune encephalomyelitis (aEAE) induced in SJL/N mice at a dose of 5 mg/kg/day, (sc) was determined", "format": "functional"}, "[2]": {"tested_on": "Mus musculus", "experiment": "Inhibition of acute experimental autoimmune encephalomyelitis (aEAE) induced in SJL/N mice at a dose of 1 mg/kg/day, (sc) was determined; Inactive", "format": "functional"}, "[3]": {"tested_on": "Mus musculus", "experiment": "Inhibition of acute experimental autoimmune encephalomyelitis (aEAE) induced in SJL/N mice at a dose of 0.2 mg/kg/day, (sc) was determined; Inactive", "format": "functional"}, "[4]": {"tested_on": "Mus musculus", "experiment": "Inhibition of acute experimental autoimmune encephalomyelitis (aEAE) induced in SJL/N mice at a dose of 5 mg/kg/day was determined", "format": "functional"}, "[5]": {"tested_on": "Mus musculus", "experiment": "Inhibition of acute experimental autoimmune encephalomyelitis (aEAE) induced in SJL/N mice at a dose of 5 mg/kg/day, (po) was determined; Inactive", "format": "functional"}, "[6]": {"tested_on": "Mus musculus", "experiment": "Inhibition of acute experimental autoimmune encephalomyelitis (aEAE) in SJL/N mice at a dose of 1 mg/kg/day, (po/sc) was determined", "format": "functional"}, "[7]": {"tested_on": "Mus musculus", "experiment": "Inhibition of acute experimental autoimmune encephalomyelitis (aEAE) in SJL/N mice at a dose of 5 mg/kg/day, (po/sc) was determined", "format": "functional"}, "[8]": {"tested_on": "Mus musculus", "experiment": "Inhibition of acute experimental autoimmune encephalomyelitis in SJL/N mice by 0.2 mg/kg/day p.o./s.c.", "format": "functional", "conditions": "po"}, "[9]": {"tested_on": "Mus musculus", "experiment": "Inhibition of acute experimental autoimmune encephalomyelitis (aEAE) induced in SJL/N mice at a dose of 1 mg/kg/day, (po) was determined; Inactive", "format": "functional"}, "[10]": {"tested_on": "Mus musculus", "experiment": "Inhibition of acute experimental autoimmune encephalomyelitis (aEAE) induced in SJL/N mice at a dose of 0.2 mg/kg/day, (po) was determined; Inactive", "format": "functional"}, "[11]": {"tested_on": "Mus musculus", "experiment": "Inhibition of acute experimental autoimmune encephalomyelitis (aEAE) induced in SJL/N mice at a dose of 1 mg/kg/day, (po)", "format": "functional"}, "[12]": {"tested_on": "Mus musculus", "experiment": "Inhibition of acute experimental autoimmune encephalomyelitis in SJL/N mice by 5 mg/kg/day p.o.", "format": "functional", "conditions": "route oral"}, "[13]": {"tested_on": "Mus musculus", "experiment": "Inhibition of acute experimental autoimmune encephalomyelitis (aEAE) induced in SJL/N mice at a dose of 0.2 mg/kg/day, (po) was determined; Inactive <35% inhibition", "format": "functional, organism-based"}, "[14]": {"tested_on": "Mus musculus", "experiment": "Inhibition of acute experimental autoimmune encephalomyelitis (aEAE) induced in SJL/N mice at a dose of 1 mg/kg/day, (po/sc) was determined; Inactive", "format": "functional"}, "[15]": {"tested_on": "Mus musculus", "experiment": "Inhibition of acute experimental autoimmune encephalomyelitis (aEAE) induced in SJL/N mice at a dose of 5 mg/kg/day, (po/sc) was determined; Inactive", "format": "functional"}, "[16]": {"tested_on": "Mus musculus", "experiment": "Inhibition of acute experimental autoimmune encephalomyelitis in SJL/N mice by 1 mg/kg/day p.o./s.c.", "format": "functional", "conditions": "route oral"}, "[17]": {"tested_on": "Mus musculus", "experiment": "Inhibition of acute experimental autoimmune encephalomyelitis (aEAE) induced in SJL/N mice at a dose of 0.2 mg/kg/day, (po/sc) was determined; Inactive", "format": "functional"}, "[18]": {"tested_on": "Mus musculus", "experiment": "Inhibition of acute experimental autoimmune encephalomyelitis in SJL/N mice by 5 mg/kg/day p.o./s.c.", "format": "functional", "conditions": "route oral"}}, "note": "The source made the active and inactive calls."}
{"smiles": "CN(C(=O)c1c(O)c2ccc(C(F)(F)F)cc2n(C)c1=O)c1ccc(F)cc1", "values": [{"measurement": "inhibition in vivo at 5 mg/kg/day", "setting": "[1]", "result": 35, "unit": "%"}]}
{"smiles": "Cc1ccc2c(O)c(C(=O)N(C)c3ccccc3)c(=O)n(C)c2c1", "values": [{"measurement": "inhibition in vivo at 5 mg/kg/day", "setting": "[1]", "result": 53, "unit": "%"}]}
{"smiles": "CN(C(=O)c1c(O)c2cccc(F)c2n(C)c1=O)c1ccc(F)cc1", "values": [{"measurement": "inhibition in vivo at 1 mg/kg/day", "setting": "[2]", "result": "< 35", "unit": "%"}, {"measurement": "inhibition in vivo at 0.2 mg/kg/day", "setting": "[3]", "result": "< 35", "unit": "%"}, {"measurement": "inhibition in vivo at 5 mg/kg/day", "setting": "[4]", "result": 55, "unit": "%"}]}
{"smiles": "CCOc1ccc2c(c1)c(O)c(C(=O)N(C)c1ccc(F)cc1)c(=O)n2C", "values": [{"measurement": "inhibition in vivo at 5 mg/kg/day", "setting": "[1]", "result": 53, "unit": "%"}]}
{"smiles": "CN(C)c1ccc2c(c1)c(O)c(C(=O)N(C)c1ccccc1)c(=O)n2C", "values": [{"measurement": "inhibition in vivo at 5 mg/kg/day", "setting": "[5]", "result": "< 35", "unit": "%"}]}
{"smiles": "CN(C(=O)c1c(O)c2ccccc2n(C)c1=O)c1ccccc1", "note": "[ROQUINIMEX]", "values": [{"measurement": "inhibition in vivo at 1 mg/kg/day", "setting": "[6]", "result": 43, "unit": "%"}, {"measurement": "inhibition in vivo at 5 mg/kg/day", "setting": "[7]", "result": 71, "unit": "%"}, {"measurement": "inhibition in vivo at 0.2 mg/kg/day", "setting": "[8]", "result": 35, "unit": "%"}]}
{"smiles": "COc1ccccc1N(C)C(=O)c1c(O)c2c(OC)cccc2n(C)c1=O", "values": [{"measurement": "inhibition in vivo at 1 mg/kg/day", "setting": "[9]", "result": "< 35", "unit": "%"}, {"measurement": "inhibition in vivo at 0.2 mg/kg/day", "setting": "[10]", "result": "< 35", "unit": "%"}]}
{"smiles": "CN(C(=O)c1c(O)c2c(Oc3ccc(F)cc3)cccc2n(C)c1=O)c1ccccc1", "values": [{"measurement": "inhibition in vivo at 1 mg/kg/day", "setting": "[9]", "result": "< 35", "unit": "%"}, {"measurement": "inhibition in vivo at 5 mg/kg/day", "setting": "[5]", "result": "< 35", "unit": "%"}]}
{"smiles": "COc1cccc2c1c(O)c(C(=O)N(C)c1ccccc1Cl)c(=O)n2C", "values": [{"measurement": "inhibition in vivo at 1 mg/kg/day", "setting": "[11]", "result": 50, "unit": "%"}, {"measurement": "inhibition in vivo at 5 mg/kg/day", "setting": "[12]", "result": 68, "unit": "%"}, {"measurement": "inhibition in vivo at 0.2 mg/kg/day", "setting": "[10]", "result": "< 35", "unit": "%"}]}
{"smiles": "CCN(C(=O)c1c(O)c2c(C)cccc2n(C)c1=O)c1ccccc1", "values": [{"measurement": "inhibition in vivo at 1 mg/kg/day", "setting": "[11]", "result": 65, "unit": "%"}, {"measurement": "inhibition", "setting": "[13]", "result": "inactive"}, {"measurement": "inhibition in vivo at 5 mg/kg/day", "setting": "[12]", "result": 85, "unit": "%"}]}
{"smiles": "CCN(C(=O)c1c(O)c2cc(C)ccc2n(C)c1=O)c1ccccc1", "values": [{"measurement": "inhibition in vivo at 1 mg/kg/day", "setting": "[9]", "result": "< 35", "unit": "%"}, {"measurement": "inhibition in vivo at 0.2 mg/kg/day", "setting": "[10]", "result": "< 35", "unit": "%"}]}
{"smiles": "COc1ccc(N(C)C(=O)c2c(O)c3ccccc3n(C3CC3)c2=O)cc1", "values": [{"measurement": "inhibition in vivo at 1 mg/kg/day", "setting": "[14]", "result": "< 35", "unit": "%"}, {"measurement": "inhibition in vivo at 5 mg/kg/day", "setting": "[15]", "result": "< 35", "unit": "%"}]}
{"smiles": "CCc1ccc2c(c1)c(O)c(C(=O)N(CC)c1ccccc1)c(=O)n2C", "values": [{"measurement": "inhibition in vivo at 1 mg/kg/day", "setting": "[9]", "result": "< 35", "unit": "%"}, {"measurement": "inhibition in vivo at 5 mg/kg/day", "setting": "[5]", "result": "< 35", "unit": "%"}]}
{"smiles": "COc1cccc2c1c(O)c(C(=O)N(C)c1cccc(F)c1F)c(=O)n2C", "values": [{"measurement": "inhibition in vivo at 1 mg/kg/day", "setting": "[9]", "result": "< 35", "unit": "%"}, {"measurement": "inhibition in vivo at 0.2 mg/kg/day", "setting": "[10]", "result": "< 35", "unit": "%"}]}
{"smiles": "CCN(C(=O)c1c(O)c2cc(Cl)ccc2n(C)c1=O)c1ccccc1", "values": [{"measurement": "inhibition in vivo at 1 mg/kg/day", "setting": "[16]", "result": 62, "unit": "%"}, {"measurement": "inhibition in vivo at 0.2 mg/kg/day", "setting": "[17]", "result": "< 35", "unit": "%"}, {"measurement": "inhibition in vivo at 5 mg/kg/day", "setting": "[18]", "result": 83, "unit": "%"}]}
